Assay results as given in patent US7148215B2, “Chemical compounds” (Aventis Pharma S.A., priority 2001, dated 2006).
Counter-ions that a name gives are not always drawn.

How the values were obtained:
[1] = system: rat cerebellar granule neurons; experiment: Effect of JNK inhibitors on LY294002-induced cytotoxicity in cerebellar granule cells (MTT); type: cell-based
Protocol: 7. Effect of JNK Inhibitors on Cytotoxicity in Cerebellar Granule Cells
LY294002 is a reversible inhibitor of PI3K and activates JNKs with subsequent cell death. We have investigated the ability of the JNK inhibitors to protect against LY294002-induced cell death in a cerebellar granule cell preparation.
Primary cerebellar cell cultures were prepared from 7-day-old Sprague-Dawley rats. Cerebella were carefully collected, dissected free of meninges and cut into 5–7 parts. Tissues were gently mechanically dissociated after digestion with VERSENE (5 minutes, 37° C.). The cells were seed onto 96-well plates pre-coated with poly-D-lysine (Becton-Dickinson) at a final density of 10^5 cells per well. Cultures were maintained at 37° C. in a humidified atmosphere with 5% CO2 and used after the 9th day of culture in DMEM medium complemented with 5% fetal calf serum, 5% horse serum and 30 mM potassium chloride in the presence of an anti-mitotic (10 μM cytosine arabinoside). The drugs were directly added to the culture at the indicated concentrations for 24 hours. Neuronal viability was assessed quantitatively by the colorimetric measurement of Mosmann or MTT assay (1983, J. Immunol. Methods, 65, 55–63). Each condition was tested in sextuplicate or triplicate and the mean values obtained analyzed statistically by one-way ANOVA, followed by Dunnett's multiple comparison test. […]

SMILES	melting point	further results
NC(=O)c1c(Cl)cn2c1CN(S(=O)(=O)c1ccc(-c3ccccn3)s1)CC2	213 to 214 °C	
COc1ccc(NC(=O)N2CCn3c(-c4ccccc4)cc(C(N)=O)c3C2)cc1	170 to 173 °C	
NC(=O)c1c(Cl)cn2c1CN(C(=O)Nc1ccc(F)cc1)CC2	229 to 231 °C	
N#Cc1ccc(NC(=O)N2CCn3c(c(C(N)=O)c(C#N)c3-c3cccnc3)C2)cc1	291 to 296 °C	
Cc1ccc(-c2c(Cl)c(C(N)=O)c3n2CCN(C(=O)Nc2ccc4ncccc4c2)C3)cn1	221 to 222 °C	
NC(=O)c1c(Cl)c(-c2ccccc2)n2c1CN(S(=O)(=O)Nc1ccccc1)CC2	207 to 208 °C	
NC(=O)c1c(Cl)c(-c2ccccc2)n2c1CN(C(=O)Cc1ccccc1O)CC2	176 to 180 °C	
COc1ccc(NC(=S)N2CCn3c(c(C(N)=O)c(Cl)c3-c3ccccc3)C2)cc1	176 to 178 °C	
N#Cc1c(C(N)=O)c2n(c1C(F)(F)F)CCN(C(=O)Nc1ccc(C(F)(F)F)cc1)C2	243 to 246 °C (dec.)	
NC(=O)c1c(Cl)c(-c2ccccc2)n2c1CN(S(=O)(=O)c1cccs1)CC2	240 to 242 °C	
NC(=O)c1c(Cl)c(C2CC2)n2c1CN(C(=O)Nc1ccc(F)cc1)CC2 [Example 3]	266 to 267 °C	
NC(=O)c1c(Cl)cn2c1CN(C(=O)Nc1ccc(-c3ccccn3)s1)CC2	249 to 250 °C	
O=c1cc(N2CCOCC2)oc2c(-c3ccccc3)cccc12 [LY294002, reference compound]		neurotoxic effect on cerebellar granule neurons ([1]; 3–100 μM added to cells cultured in high potassium medium, FIG. 1): induced neuronal death
NC(=O)c1c(Cl)c(C2CC2)n2c1CN(C(=O)Nc1ccc(F)cc1)CC2 [Example 16(a)]	230 to 231 °C	
N#Cc1c(C(N)=O)c2n(c1-c1cccnc1)CCN(C(=O)Nc1ccc(F)cc1)C2	275 to 279 °C	
COc1ccc(NC(=O)N2CCn3c(c(C(N)=O)c(Cl)c3-c3ccccc3)C2)cc1	246 to 248 °C	
NC(=O)c1c(Cl)c(-c2ccccc2)n2c1CN(C(=O)CCC1CCCCC1)CC2	181 to 182 °C	
N#Cc1c(C(N)=O)c2n(c1C1CC1)CCN(C(=O)Nc1ccc(C(F)(F)F)nc1)C2	149 to 153 °C	

SMILES	melting point	further results
N#Cc1ccc(NC(=O)N2CCn3c(c(C(N)=O)c(Cl)c3C3CC3)C2)cc1	196 to 198 °C	
N#Cc1c(C(N)=O)c2n(c1C1CC1)CCN(S(=O)(=O)c1ccc(C(F)(F)F)cc1)C2	253 to 256 °C	
N#Cc1c(C(N)=O)c2n(c1-c1ccccc1)CCN(C(=O)Nc1cccc(F)c1)C2	219 to 220 °C	
N#Cc1c(C(N)=O)c2n(c1C1CCOCC1)CCN(C(=O)Nc1ccc3ncccc3c1)C2	296 to 298 °C (dec.)	
Cc1c(Cl)c(C(N)=O)c2n1CCN(C(=O)Nc1cccc(F)c1)C2	229 to 231 °C	
NC(=O)c1c(Cl)c(-c2cccnc2)n2c1CN(S(=O)(=O)c1ccc(C(F)(F)F)cc1)CC2	205 to 206 °C	
N#Cc1c(C(N)=O)c2n(c1-c1ccccc1)CCN(C(=O)Nc1ccc(C(=O)O)cc1)C2	286 to 288 °C	
Cc1ccc(-c2c(Cl)c(C(N)=O)c3n2CCN(C(=O)Nc2ccc(F)cc2)C3)cn1	235 to 238 °C (dec.)	
N#Cc1c(C(N)=O)c2n(c1C1CCOCC1)CCN(C(=O)Nc1cccc(C(F)(F)F)c1)C2	200 to 202 °C (dec.)	
CS(=O)(=O)N1CCC(c2c(C#N)c(C(N)=O)c3n2CCN(C(=O)Nc2ccc(C#N)cc2)C3)CC1	218 to 221 °C	
NC(=O)c1c(Cl)c(-c2ccccc2)n2c1CN(C(=O)Nc1cccnc1)CC2	261 to 263 °C	
N#Cc1c(C(N)=O)c2n(c1C1CC1)CCN(C(=O)Nc1ccc(C(=O)NCCN3CCOCC3)cc1)C2	197 to 199 °C	
CS(=O)(=O)N1CCC(c2c(C#N)c(C(N)=O)c3n2CCN(C(=O)Nc2ccc(F)cc2)C3)CC1	177 to 180 °C	
NC(=O)c1c(Cl)c(C2CC2)n2c1CNCC2 (as salt: trifluoroacetic acid salt)	237 to 239 °C	
NC(=O)c1c(Cl)c(-c2ccccc2)n2c1CN(C(=O)Oc1ccccc1)CC2	196 to 198 °C	
N#Cc1c(C(N)=O)c2n(c1C1CC1)CCN(C(=O)Nc1ccc(F)cc1)C2 [Example 9(a), 7-Cyano-6-cyclopropyl-3,4-dihydro-1H-pyrrolo[1,2-a]pyrazine-2,8-dicarboxylic acid 8-amide 2-[(4-fluorophenyl)amide]]	232 to 234 °C	IC50 ([1]; Neuron, LY294002 30 μM, rat cerebellar granule cells after 9 days of culture, 24 hours, MTT, FIG. 2, read-out: protection against LY294002-induced toxicity, IC50): 7 µM
COc1ccc(N/C(=N\C#N)N2CCn3c(c(C(N)=O)c(Cl)c3-c3ccccc3)C2)cc1	170 °C	
